The values that follow come from PubChem BioAssay (NCI).

Some test systems named below: CCRF-CEM leukemia; HT29 colon; MALME-3M melanoma; NCI-H23 lung; NCI-H522 lung; RPMI-8226 leukemia; SF-268 CNS; SK-OV-3 ovarian; SR leukemia; TK-10 renal.
What all share (assay): growth of human tumour cells (NCI), 48 h

SMILES strings stand for the structures. Several values for one entry are separate records, joined by “and”; a condition that tells them apart may be missing. Equal values may be shown once.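 48-hour exposure; five concentrations; linearly interpolated endpoints. Here, GI50 denotes the concentration required for 50% inhibition of growth. TGI: concentration producing complete growth inhibition.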

With `O=C(CCc1nnc2s/c(=C\c3ccccc3)c(=O)n12)Nc1cc(Cl)ccc1Cl`, the TGI in the assay on CCRF-CEM leukemia, with HT29 colon, in the assay with MALME-3M melanoma, in the assay on NCI-H23 lung, in the assay with NCI-H522 lung and with RPMI-8226 leukemia was more than 100 µM each time. Further, the TGI in the assay on SF-268 CNS, in the assay with SK-OV-3 ovarian, with SR leukemia and with TK-10 renal was more than 100 µM each time.

Turning to `C=CCN1C(=O)/C(=c2\sc3n(c2=O)C2C(NN=3)N(CC)C(=O)N2CC)c2ccccc21` (stereo not drawn), the GI50 is 0.469 µM in the assay with CCRF-CEM leukemia; 0.39 µM in the assay with HT29 colon; 1.28 µM with MALME-3M melanoma; 0.88 µM with NCI-H23 lung; 0.379 µM in the assay on NCI-H522 lung; 0.657 µM in the assay on RPMI-8226 leukemia. Besides, the GI50 in the assay on SF-268 CNS was 1.26 µM; in the assay on SK-OV-3 ovarian, 1.45 µM; with SR leukemia, 0.38 µM; in the assay on TK-10 renal, 1.85 µM. The TGI was more than 100 µM with CCRF-CEM leukemia; more than 100 µM with MALME-3M melanoma; more than 50.7 µM in the assay on NCI-H23 lung; more than 100 µM in the assay with RPMI-8226 leukemia; more than 100 µM in the assay on SF-268 CNS; more than 23.9 µM with SK-OV-3 ovarian. Also, the TGI in the assay on SR leukemia is more than 100 µM; with TK-10 renal it was more than 20.5 µM.

With `Oc1nc(NCCc2ccccc2)sc1/C=C1\C=Nc2ncccc21`, the GI50 is 3.31 µM and 2.42 µM with CCRF-CEM leukemia; 2.8 µM and 4 µM with HT29 colon; 3.28 µM in the assay with MALME-3M melanoma; 1.62 µM and 2.4 µM in the assay with NCI-H23 lung; 1.43 µM and 1.39 µM in the assay on NCI-H522 lung; 3.21 µM and 2.99 µM in the assay with RPMI-8226 leukemia. The GI50 in the assay on SF-268 CNS was 2.72 µM and 2.63 µM; in the assay with SK-OV-3 ovarian, 2.08 µM and 2.77 µM; in the assay with SR leukemia, 0.397 µM and 0.554 µM; in the assay with TK-10 renal it was 3.59 µM and 3.04 µM. The TGI in the assay on CCRF-CEM leukemia was 13.9 µM and 7.8 µM; in the assay on HT29 colon it was 11.4 µM and 26.7 µM; in the assay with MALME-3M melanoma it was 8.93 µM; in the assay on NCI-H23 lung, 5.72 µM and 8.12 µM; in the assay on NCI-H522 lung, 12.1 µM and 11.6 µM; in the assay on RPMI-8226 leukemia, 12.5 µM and 16.1 µM. Further, the TGI with SF-268 CNS was 9.07 µM and 8.87 µM; with SK-OV-3 ovarian it was 15.2 µM and 9.07 µM; with SR leukemia it was 17.7 µM and 7.79 µM; in the assay on TK-10 renal, 15.5 µM and 17.7 µM.

In the case of `CN(C)CC(C(=O)c1ccccc1)c1ccccc1` (stereo not drawn), the GI50 in the assay with CCRF-CEM leukemia was 0.755 µM; with HT29 colon, 0.662 µM; in the assay with MALME-3M melanoma, 1.69 µM; in the assay on NCI-H23 lung, 2.95 µM; in the assay with NCI-H522 lung, 1.3 µM; in the assay on RPMI-8226 leukemia, 2.08 µM. Moreover, the GI50 in the assay with SF-268 CNS was 3.26 µM; in the assay on SK-OV-3 ovarian it was 2.62 µM; with SR leukemia it was 2.28 µM; in the assay with TK-10 renal, 1.3 µM. Further, the TGI stood at 10.9 µM in the assay on CCRF-CEM leukemia; 2.15 µM with HT29 colon; 3.62 µM with MALME-3M melanoma; 12.7 µM in the assay on NCI-H23 lung; 2.79 µM in the assay with NCI-H522 lung; 7.49 µM in the assay with RPMI-8226 leukemia. The TGI with SF-268 CNS turned out to be 10.8 µM; in the assay on SK-OV-3 ovarian, 7.77 µM; in the assay with SR leukemia it was 7.51 µM; with TK-10 renal, 2.67 µM.

`COc1c(OC(C)=O)cc2c(OC(C)=O)c1CC(C)CC(OC)C(O)C(C)/C=C(\C)C(OC(N)=O)C(OC)/C=C\C=C(/C)C(=O)N2` (stereo not drawn): the TGI in the assay on CCRF-CEM leukemia is 98.3 µM; in the assay with HT29 colon, more than 100 µM; with MALME-3M melanoma, more than 100 µM; in the assay with NCI-H23 lung, more than 100 µM; in the assay on NCI-H522 lung, more than 41.5 µM; in the assay with RPMI-8226 leukemia it was more than 80.9 µM. The TGI is more than 100 µM with SF-268 CNS, more than 100 µM in the assay with SK-OV-3 ovarian, more than 72.6 µM with SR leukemia and more than 100 µM with TK-10 renal.

With `CC(=O)NNc1nc(C)c(C(=O)NNC(=O)C(=O)Nc2ccc(C)c(C)c2)s1`, the TGI was more than 100 µM with CCRF-CEM leukemia; more than 100 µM in the assay on HT29 colon; more than 100 µM with MALME-3M melanoma; more than 100 µM in the assay with NCI-H23 lung; 46.3 µM with NCI-H522 lung; more than 100 µM in the assay with RPMI-8226 leukemia. Also, the TGI with SF-268 CNS, in the assay with SK-OV-3 ovarian, in the assay on SR leukemia and in the assay with TK-10 renal was more than 100 µM each time.

As to `COc1cc(/C=C/C(=O)C(=Cc2ccc(F)c(F)c2)C(=O)/C=C/c2ccc(O)c(OC)c2)ccc1O`, the GI50 was 2.46 µM in the assay on CCRF-CEM leukemia; 1.72 µM with HT29 colon; 5.61 µM in the assay with MALME-3M melanoma; 2.8 µM in the assay with NCI-H23 lung; 1.45 µM in the assay on NCI-H522 lung; 2.44 µM in the assay on RPMI-8226 leukemia. In addition, the GI50 was 2.74 µM in the assay on SF-268 CNS, 3.45 µM with SK-OV-3 ovarian, 2.83 µM with SR leukemia and 2.67 µM with TK-10 renal. Also, the TGI was more than 100 µM in the assay with CCRF-CEM leukemia; 3.63 µM in the assay on HT29 colon; 37.3 µM in the assay with MALME-3M melanoma; 8.56 µM in the assay with NCI-H23 lung; 3.12 µM with NCI-H522 lung; 8.29 µM in the assay on RPMI-8226 leukemia. The TGI worked out at 12.5 µM with SF-268 CNS, 12.5 µM in the assay with SK-OV-3 ovarian, 9.2 µM in the assay on SR leukemia and 8.37 µM in the assay on TK-10 renal.

On to `CC(=O)OC1C=CC2CCN3C(=O)c4cc5c(cc4[C@H]1C23)OCO5` (stereo partly drawn), for which the TGI in the assay with CCRF-CEM leukemia, in the assay with HT29 colon, in the assay with MALME-3M melanoma, in the assay with NCI-H23 lung, in the assay on NCI-H522 lung and with RPMI-8226 leukemia was more than 100 µM in each case. The TGI with SF-268 CNS, in the assay on SK-OV-3 ovarian, in the assay on SR leukemia and with TK-10 renal was more than 100 µM in each case.

In the case of `O=C1NC(=NCc2cccs2)SC1Cc1ccc2ncccc2c1` (stereo not drawn), the GI50 with CCRF-CEM leukemia was 11.7 µM; with HT29 colon, 11.7 µM; in the assay with MALME-3M melanoma, 24.7 µM; in the assay on NCI-H23 lung, more than 25 µM; in the assay on NCI-H522 lung, 16.1 µM; with RPMI-8226 leukemia, 16.9 µM. The GI50 is more than 23 µM with SF-268 CNS, more than 25 µM in the assay on SK-OV-3 ovarian, 8.86 µM in the assay with SR leukemia and more than 25 µM in the assay with TK-10 renal. The TGI with CCRF-CEM leukemia, in the assay on HT29 colon, in the assay with MALME-3M melanoma, in the assay with NCI-H23 lung, with NCI-H522 lung and in the assay on RPMI-8226 leukemia was more than 25 µM in each case. The TGI with SF-268 CNS, in the assay on SK-OV-3 ovarian, in the assay with SR leukemia and in the assay on TK-10 renal was more than 25 µM in each case.
